≈ marks a conversion by molar mass, not a printed value. Where two headings read alike, the source gives them in different places. Where no end group is shown, it is not given here.
What was measured:
[1] = system: S. pneumoniae (ATCC 49619); conditions: Gram-positive; CLSI microdilution, CAMHB + 2.5% lysed horse blood, 37 °C, 24 h; highest MIC of three independent experiments in triplicate
How it was run: (§1)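 Broth microdilution per CLSI: overnight cultures diluted in cation-adjusted Mueller Hinton Broth to 10^6 CFU/mL, mixed with 2-fold serial peptide dilutions, incubated 37 °C for 24 h. MIC = lowest peptide concentration inhibiting growth. Three independent assays in triplicate.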

[2] = system: S. pneumoniae (ATCC 700677); conditions: Gram-positive, multi-drug resistant (penicillin, tetracycline, erythromycin); CAMHB + 2.5% lysed horse blood, 37 °C, 24 h; highest MIC of three independent experiments in triplicate
How it was run: as §1

[3] = system: Bacillus subtilis (ATCC 6633)
How it was run: as §1

MRSA (ATCC BAA-1556) = conditions: for MIC, MRSA (ATCC BAA-1556), Control: MH media without salt ions or serum; for MIC, MRSA (ATCC BAA-1556), Control / MIC, MRSA (ATCC BAA-1556), MgCl2 / MIC, MRSA (ATCC BAA-1556), CaCl2 / MIC, MRSA (ATCC BAA-1556), KCl / MIC, MRSA (ATCC BAA-1556), NH4Cl / MIC, MRSA (ATCC BAA-1556), NaCl / MIC, MRSA (ATCC BAA-1556), FBS (25%): three independent experiments in triplicate; for MIC, MRSA (ATCC BAA-1556): broth microdilution (CLSI), CAMHB, 37 °C, 24 h; for MIC, MRSA (ATCC BAA-1556), MgCl2: media with 1 mM MgCl2; for MIC, MRSA (ATCC BAA-1556), CaCl2: media with 2 mM CaCl2; for MIC, MRSA (ATCC BAA-1556), KCl: media with 4.5 mM KCl; for MIC, MRSA (ATCC BAA-1556), NH4Cl: media with 6 mM NH4Cl; for MIC, MRSA (ATCC BAA-1556), NaCl: media with 150 mM NaCl; for MIC, MRSA (ATCC BAA-1556), FBS (25%): media with 25% fetal bovine serum
How it was run: as §1

E. faecalis (ATCC 29212) = conditions: Gram-positive; CLSI microdilution, CAMHB, 37 °C, 24 h; highest MIC of three independent experiments in triplicate
How it was run: as §1

[4] = system: Bacillus cereus (ATCC 13061)
How it was run: as §1

[5] = system: P. aeruginosa (ATCC 27883); experiment: MIC, standard microtiter dilution (CLSI); format: cell-based, Pseudomonas aeruginosa; conditions: broth microdilution (CLSI), CAMHB, 37 °C, 24 h
How it was run: as §1

[6] = system: K. pneumonia (ATCC BAA-2470); conditions: Gram-negative, carbapenem-resistant; CLSI microdilution, CAMHB, 37 °C, 24 h; highest MIC of three independent experiments in triplicate
How it was run: as §1

E. coli (ATCC BAA-2452) = conditions: Gram-negative, NDM-1; CLSI microdilution, CAMHB, 37 °C, 24 h; highest MIC of three independent experiments in triplicate
How it was run: as §1

[7] = system: Klebsiella pneumonia (ATCC 13883); conditions: ATCC 13883, 24 h
How it was run: as §1

[8] = system: A. baumannii (ATCC BAA1605); conditions: Gram-negative, footnote e ciprofloxacin (MDR in Table S3); CLSI microdilution, CAMHB, 37 °C, 24 h; highest MIC of three independent experiments in triplicate
How it was run: as §1

[9] = system: P. aeruginosa (ATCC 10145); conditions: ATCC 10145, 24 h
How it was run: as §1

E. coli (ATCC 25922) = conditions: for MIC, E. coli (ATCC 25922): broth microdilution (CLSI), CAMHB, 37 °C, 24 h
How it was run: as §1

[10] = system: P. aeruginosa (ATCC BAA-1744); conditions: Gram-negative, resistant strain (marked a; imipenem resistant in Table S3); CLSI microdilution, CAMHB, 37 °C, 24 h; highest MIC of three independent experiments in triplicate
How it was run: as §1

[11] = Gram-positive, CLSI microdilution, CAMHB, 37 °C, 24 h, highest MIC of three independent experiments in triplicate
[12] = 10^6 CFU/mL, highest MIC of three independent experiments in triplicate

Molecule	MIC, S. pneumoniae (ATCC 700677) [2]	MIC, MRSA (ATCC BAA-1556), Control (MRSA (ATCC BAA-1556))	MIC, MRSA (ATCC BAA-1556) (MRSA (ATCC BAA-1556); [12])	MIC, MRSA (ATCC BAA-1556), MgCl2 (MRSA (ATCC BAA-1556))	MIC, MRSA (ATCC BAA-1556), CaCl2 (MRSA (ATCC BAA-1556))	MIC, MRSA (ATCC BAA-1556), KCl (MRSA (ATCC BAA-1556))	MIC, MRSA (ATCC BAA-1556), NH4Cl (MRSA (ATCC BAA-1556))	MIC, MRSA (ATCC BAA-1556), NaCl (MRSA (ATCC BAA-1556))	MIC, MRSA (ATCC BAA-1556), FBS (25%) (MRSA (ATCC BAA-1556))	MIC, MRSA (ATCC BAA-1556) (MRSA (ATCC BAA-1556); value in parentheses (μM))	MIC, E. faecalis (ATCC 29212) (E. faecalis (ATCC 29212))	other results
CCCCCCCCCC(=O)N[C@@H](Cc1c[nH]c2ccccc12)C(=O)N[C@H](CC(N)=O)C(=O)N[C@@H](CC(=O)O)C(=O)N[C@@H]1C(=O)NCC(=O)N[C@@H](CCCN)C(=O)N[C@@H](CC(=O)O)C(=O)N[C@H](C)C(=O)N[C@@H](CC(=O)O)C(=O)NCC(=O)N[C@H](CO)C(=O)N[C@@H]([C@H](C)CC(=O)O)C(=O)N[C@@H](CC(=O)c2ccccc2N)C(=O)O[C@@H]1C [daptomycin, reference compound]	12.5 µg/mL	1.5 µg/mL	1.5 µg/mL	3.1 µg/mL (≈ 1.91 µM)	3.1 µg/mL (≈ 1.91 µM)	1.5 µg/mL (≈ 0.926 µM)	1.5 µg/mL (≈ 0.926 µM)	1.5 µg/mL (≈ 0.926 µM)	3.1 µg/mL (≈ 1.91 µM)	0.86 µM	6.2 µg/mL	MIC, S. pneumoniae (ATCC 49619) [1]: 12.5 µg/mL; MIC, Bacillus subtilis (ATCC 6633) [3, 11]: 0.7 µg/mL; MIC, Bacillus cereus (ATCC 13061) [4, 11]: 1.5 µg/mL
KWIKKWIKWWKK-NH2 [7b]	25 µg/mL	6.2 µg/mL	6.2 µg/mL	6.2 µg/mL	12.5 µg/mL	12.5 µg/mL	12.5 µg/mL	25 µg/mL	25 µg/mL	3.53 µM	12.5 µg/mL	MIC, P. aeruginosa (ATCC 27883) [5, 12]: 6.2 µg/mL; MIC, P. aeruginosa (ATCC 27883) ([5]; value in parentheses (μM)): 3.53 µM; MIC, K. pneumonia (ATCC BAA-2470) [6]: 25 µg/mL; MIC, E. coli (ATCC BAA-2452) (E. coli (ATCC BAA-2452)): 6.2 µg/mL; MIC, Klebsiella pneumonia (ATCC 13883) [7]: 25 µg/mL; MIC, A. baumannii (ATCC BAA1605) [8]: 12.5 µg/mL; MIC, P. aeruginosa (ATCC 10145) [9]: 6.2 µg/mL; MIC, Bacillus subtilis (ATCC 6633) ([3]; ATCC 6633, 24 h): 3.1 µg/mL; MIC, E. coli (ATCC 25922), Control (E. coli (ATCC 25922); ATCC 25922, 24 h): 6.2 µg/mL; MIC, E. coli (ATCC 25922), FBS (25%) (E. coli (ATCC 25922); ATCC 25922, 24 h): 50 µg/mL; MIC, E. coli (ATCC 25922), KCl (E. coli (ATCC 25922); ATCC 25922, 24 h): 25 µg/mL; MIC, E. coli (ATCC 25922), NH4Cl (E. coli (ATCC 25922); ATCC 25922, 24 h): 25 µg/mL; MIC, E. coli (ATCC 25922), NaCl (E. coli (ATCC 25922); ATCC 25922, 24 h): 25 µg/mL; MIC, E. coli (ATCC 25922) (E. coli (ATCC 25922); [12]): 6.2 µg/mL; MIC, E. coli (ATCC 25922), MgCl2 (E. coli (ATCC 25922); media with 1 mM MgCl2, three independent experiments in triplicate): 12.5 µg/mL; MIC, E. coli (ATCC 25922), CaCl2 (E. coli (ATCC 25922); media with 2 mM CaCl2, three independent experiments in triplicate): 12.5 µg/mL; MIC, E. coli (ATCC 25922) (E. coli (ATCC 25922); value in parentheses (μM)): 3.53 µM; MIC, P. aeruginosa (ATCC BAA-1744) [10]: 12.5 µg/mL; MIC, Bacillus cereus (ATCC 13061) ([4]; ATCC 13061, 24 h): 6.2 µg/mL
